Test results from article PMC4505863 (ACS Chemical Neuroscience, 2014).

Legend:
[1] = biological target: T1, 5-HT2A receptor (Homo sapiens, UniProt P28223); experiment: h5-HT2A affinity, antagonist radioligand [3H]ketanserin; type: binding
[2] = biological target: T1, 5-HT2A receptor; experiment: h5-HT2A affinity, agonist radioligand [125I]DOI; type: binding
[3] = biological target: T2, human 5-HT2C receptor (Homo sapiens, UniProt P28335); experiment: h5-HT2C affinity, agonist radioligand [125I]DOI; type: binding
T2 sequence (P28335 33-458): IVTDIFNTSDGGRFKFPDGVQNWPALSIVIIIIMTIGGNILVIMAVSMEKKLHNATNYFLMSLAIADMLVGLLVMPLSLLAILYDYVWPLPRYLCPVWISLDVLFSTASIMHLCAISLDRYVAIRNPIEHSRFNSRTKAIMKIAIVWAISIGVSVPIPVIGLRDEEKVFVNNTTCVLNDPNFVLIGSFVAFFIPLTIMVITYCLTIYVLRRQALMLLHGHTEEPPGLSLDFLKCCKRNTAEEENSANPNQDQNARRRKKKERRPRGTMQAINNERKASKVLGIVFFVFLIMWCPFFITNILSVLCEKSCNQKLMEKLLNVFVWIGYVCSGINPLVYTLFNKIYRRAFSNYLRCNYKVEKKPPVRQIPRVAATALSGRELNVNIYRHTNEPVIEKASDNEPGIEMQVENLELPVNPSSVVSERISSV

[4] = biological target: 5-HT2B (Homo sapiens, UniProt P41595); experiment: PDSP screening affinity 5-HT2B; type: binding
[5] = biological target: T3, 5-HT1A (Homo sapiens, UniProt P08908); experiment: PDSP screening affinity 5-HT1A; type: binding; conditions: 5-HT1A affinity
T3 sequence (P08908 1-422): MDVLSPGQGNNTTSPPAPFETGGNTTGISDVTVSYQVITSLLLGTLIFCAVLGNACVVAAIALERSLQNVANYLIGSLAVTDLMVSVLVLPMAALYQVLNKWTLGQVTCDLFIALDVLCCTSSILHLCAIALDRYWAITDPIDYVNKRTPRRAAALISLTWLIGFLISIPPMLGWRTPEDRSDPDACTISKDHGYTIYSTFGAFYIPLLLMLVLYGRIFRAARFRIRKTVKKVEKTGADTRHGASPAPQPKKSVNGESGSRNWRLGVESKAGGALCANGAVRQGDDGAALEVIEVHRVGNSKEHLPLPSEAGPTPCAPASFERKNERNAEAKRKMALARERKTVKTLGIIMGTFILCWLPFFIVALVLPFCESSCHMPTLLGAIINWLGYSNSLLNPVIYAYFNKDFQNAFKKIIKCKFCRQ

[6] = biological target: 5-HT1B (Homo sapiens, UniProt P28222); experiment: PDSP screening affinity 5-HT1B; type: binding; conditions: 5-HT1B affinity
[7] = biological target: 5-HT1D (Homo sapiens, UniProt P28221); experiment: PDSP screening affinity 5-HT1D; type: binding
[8] = biological target: 5-ht1e (Homo sapiens, UniProt P28566); experiment: PDSP screening affinity 5-ht1e; type: binding
[9] = biological target: T4, 5-HT3 (Homo sapiens, UniProt P46098); experiment: PDSP screening affinity 5-HT3; type: binding
T4 sequence (P46098 24-478): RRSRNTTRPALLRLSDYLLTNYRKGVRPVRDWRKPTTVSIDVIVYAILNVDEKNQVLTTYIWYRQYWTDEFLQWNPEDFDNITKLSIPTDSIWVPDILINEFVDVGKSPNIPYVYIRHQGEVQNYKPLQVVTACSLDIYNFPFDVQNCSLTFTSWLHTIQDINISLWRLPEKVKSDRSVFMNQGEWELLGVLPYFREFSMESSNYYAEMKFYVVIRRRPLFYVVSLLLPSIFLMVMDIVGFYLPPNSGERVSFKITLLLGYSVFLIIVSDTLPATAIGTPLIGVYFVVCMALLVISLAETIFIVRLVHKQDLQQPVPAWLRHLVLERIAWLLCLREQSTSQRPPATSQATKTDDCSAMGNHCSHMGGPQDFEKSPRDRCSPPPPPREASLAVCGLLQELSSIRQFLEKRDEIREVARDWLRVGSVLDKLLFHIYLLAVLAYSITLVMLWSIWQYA

[10] = biological target: 5-ht5a (Homo sapiens, UniProt P47898); experiment: PDSP screening affinity 5-ht5a; type: binding; conditions: 5-ht5a affinity
[11] = biological target: 5-HT6 (Homo sapiens, UniProt P50406); experiment: PDSP screening affinity 5-HT6; type: binding
[12] = biological target: 5-HT7 (Homo sapiens, UniProt P34969); experiment: PDSP screening affinity 5-HT7; type: binding
[13] = biological target: r5-HT2A (Rattus norvegicus, UniProt P14842); experiment: Ca2+ mobilization assay; type: cell-based; conditions: for EC50: r5-HT2A EC50, Ca2+ mobilization; for Emax: read-out: r5-HT2A Emax, percentage of the maximum response to 5-HT
[14] = biological target: h5-HT2A (Homo sapiens, UniProt P28223); experiment: Ca2+ mobilization assay; type: cell-based; conditions: for Emax: HEK293, read-out: h5-HT2A Emax, percentage of the maximum response to 5-HT
[15] = biological target: h5-HT2B (Homo sapiens, UniProt P41595); experiment: Ca2+ mobilization assay; type: cell-based; conditions: for Emax: HEK293, read-out: h5-HT2B Emax
[16] = biological target: T5, r5-HT2C (Rattus norvegicus, UniProt P08909); experiment: Ca2+ mobilization assay; type: cell-based; conditions: for Emax: read-out: r5-HT2C Emax
T5 sequence (P08909 33-460): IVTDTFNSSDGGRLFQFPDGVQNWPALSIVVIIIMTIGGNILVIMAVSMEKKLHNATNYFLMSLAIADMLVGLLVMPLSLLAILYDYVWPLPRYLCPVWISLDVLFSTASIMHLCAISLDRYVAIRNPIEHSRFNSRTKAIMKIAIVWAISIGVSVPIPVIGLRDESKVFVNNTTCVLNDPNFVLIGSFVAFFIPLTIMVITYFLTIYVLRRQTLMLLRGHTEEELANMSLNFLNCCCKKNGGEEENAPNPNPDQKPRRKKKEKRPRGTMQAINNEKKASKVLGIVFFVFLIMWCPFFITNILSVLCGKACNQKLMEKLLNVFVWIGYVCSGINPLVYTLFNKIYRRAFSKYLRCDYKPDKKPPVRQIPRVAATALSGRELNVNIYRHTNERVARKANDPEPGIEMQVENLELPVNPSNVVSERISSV

[17] = biological target: T6, h5-HT2C (Homo sapiens, UniProt P28335); experiment: Ca2+ mobilization assay; type: cell-based; conditions: for Emax: HEK293, read-out: h5HT2C Emax; for EC50: h5HT2C EC50, Ca2+ mobilization
T6 sequence (P28335 33-458): T2 sequence (P28335 33-458)

[18] = system: Male C57BL/6J mice; experiment: Mouse head twitch response; conditions: for max counts: HTR counts; for ED50: Mus musculus, sc, read-out: ED50 mg/kg (95% CI), mouse head twitch; for magnitude of peak effect × vehicle / maximally effective dose: mouse head twitch
[19] = biological target: T2, human 5-HT2C receptor; experiment: h5-HT2C affinity, antagonist radioligand [3H]mesulergine; type: binding
[20] = h5-HT2B EC50, Ca2+ mobilization
[21] = r5-HT2C EC50, Ca2+ mobilization

Chain of 5-HT7 (P34969 whole entry): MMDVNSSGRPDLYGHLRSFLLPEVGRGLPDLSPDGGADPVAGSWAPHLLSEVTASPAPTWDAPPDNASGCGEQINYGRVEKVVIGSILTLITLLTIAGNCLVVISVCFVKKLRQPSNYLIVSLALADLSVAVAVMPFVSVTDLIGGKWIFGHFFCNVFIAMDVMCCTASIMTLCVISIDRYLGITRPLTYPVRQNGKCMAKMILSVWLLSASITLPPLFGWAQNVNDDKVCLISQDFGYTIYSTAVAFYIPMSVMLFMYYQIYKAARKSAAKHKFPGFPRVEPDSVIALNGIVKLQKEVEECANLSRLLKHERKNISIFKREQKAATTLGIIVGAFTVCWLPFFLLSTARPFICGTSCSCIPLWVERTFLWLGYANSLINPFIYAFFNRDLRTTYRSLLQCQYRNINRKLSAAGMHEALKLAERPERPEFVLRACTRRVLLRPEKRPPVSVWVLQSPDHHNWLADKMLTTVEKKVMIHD
Chain of 5-HT1D (P28221 whole entry): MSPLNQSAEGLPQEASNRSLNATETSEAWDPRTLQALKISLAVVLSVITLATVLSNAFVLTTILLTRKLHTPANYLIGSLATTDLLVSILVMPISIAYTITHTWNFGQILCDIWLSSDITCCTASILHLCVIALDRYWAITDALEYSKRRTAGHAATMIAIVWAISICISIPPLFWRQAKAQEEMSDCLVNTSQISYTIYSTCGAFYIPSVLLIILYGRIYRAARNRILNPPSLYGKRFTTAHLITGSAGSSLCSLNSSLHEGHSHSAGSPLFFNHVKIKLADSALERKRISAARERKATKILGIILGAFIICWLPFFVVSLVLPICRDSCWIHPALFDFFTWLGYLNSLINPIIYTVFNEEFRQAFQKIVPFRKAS
Chain of 5-ht1e (P28566 whole entry): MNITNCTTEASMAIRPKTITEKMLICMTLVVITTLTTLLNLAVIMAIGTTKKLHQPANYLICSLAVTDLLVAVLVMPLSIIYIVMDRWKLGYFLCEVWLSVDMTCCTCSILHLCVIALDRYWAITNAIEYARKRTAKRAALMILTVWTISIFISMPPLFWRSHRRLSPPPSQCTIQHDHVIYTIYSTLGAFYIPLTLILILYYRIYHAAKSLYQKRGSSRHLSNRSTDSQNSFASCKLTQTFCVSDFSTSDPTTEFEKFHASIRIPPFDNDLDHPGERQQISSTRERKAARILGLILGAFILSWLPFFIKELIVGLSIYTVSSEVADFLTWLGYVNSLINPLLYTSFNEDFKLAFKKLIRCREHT
Chain of r5-HT2A (P14842 whole entry): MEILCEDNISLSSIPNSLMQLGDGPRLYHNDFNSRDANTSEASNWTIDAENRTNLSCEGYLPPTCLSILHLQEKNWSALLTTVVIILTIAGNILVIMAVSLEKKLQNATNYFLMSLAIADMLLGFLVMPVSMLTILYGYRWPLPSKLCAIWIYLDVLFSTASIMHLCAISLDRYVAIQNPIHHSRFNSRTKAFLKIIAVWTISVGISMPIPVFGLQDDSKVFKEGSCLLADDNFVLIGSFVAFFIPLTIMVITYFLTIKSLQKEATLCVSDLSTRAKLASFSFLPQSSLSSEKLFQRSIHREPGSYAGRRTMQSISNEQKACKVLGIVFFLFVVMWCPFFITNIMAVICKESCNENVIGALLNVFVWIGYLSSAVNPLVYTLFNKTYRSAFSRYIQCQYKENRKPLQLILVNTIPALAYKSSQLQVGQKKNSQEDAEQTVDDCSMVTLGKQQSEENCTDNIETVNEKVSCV
Chain of 5-ht5a (P47898 whole entry): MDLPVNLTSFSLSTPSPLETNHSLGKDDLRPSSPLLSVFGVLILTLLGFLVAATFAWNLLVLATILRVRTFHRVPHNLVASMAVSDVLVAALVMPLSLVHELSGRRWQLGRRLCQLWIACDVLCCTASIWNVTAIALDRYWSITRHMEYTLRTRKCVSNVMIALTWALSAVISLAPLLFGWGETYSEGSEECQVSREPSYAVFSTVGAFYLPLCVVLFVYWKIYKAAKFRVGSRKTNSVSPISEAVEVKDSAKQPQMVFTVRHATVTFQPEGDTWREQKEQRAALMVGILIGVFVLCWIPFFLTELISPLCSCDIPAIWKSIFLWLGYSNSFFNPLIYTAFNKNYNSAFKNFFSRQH
Chain of h5-HT2B (P41595 whole entry): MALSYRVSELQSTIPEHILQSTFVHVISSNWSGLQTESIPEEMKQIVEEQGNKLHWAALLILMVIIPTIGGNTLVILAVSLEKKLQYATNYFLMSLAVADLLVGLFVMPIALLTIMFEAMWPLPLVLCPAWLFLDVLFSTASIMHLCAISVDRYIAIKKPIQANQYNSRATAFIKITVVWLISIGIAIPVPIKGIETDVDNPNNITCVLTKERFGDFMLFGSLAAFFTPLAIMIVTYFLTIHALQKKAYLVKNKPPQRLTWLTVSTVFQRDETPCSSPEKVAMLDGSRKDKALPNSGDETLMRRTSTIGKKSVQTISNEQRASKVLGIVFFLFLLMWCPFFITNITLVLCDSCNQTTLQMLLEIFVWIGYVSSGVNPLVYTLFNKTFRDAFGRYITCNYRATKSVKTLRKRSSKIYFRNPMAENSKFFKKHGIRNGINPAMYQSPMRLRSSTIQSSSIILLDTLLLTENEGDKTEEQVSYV
Chain of 5-HT2B (P41595 whole entry): as above
Chain of 5-HT6 (P50406 whole entry): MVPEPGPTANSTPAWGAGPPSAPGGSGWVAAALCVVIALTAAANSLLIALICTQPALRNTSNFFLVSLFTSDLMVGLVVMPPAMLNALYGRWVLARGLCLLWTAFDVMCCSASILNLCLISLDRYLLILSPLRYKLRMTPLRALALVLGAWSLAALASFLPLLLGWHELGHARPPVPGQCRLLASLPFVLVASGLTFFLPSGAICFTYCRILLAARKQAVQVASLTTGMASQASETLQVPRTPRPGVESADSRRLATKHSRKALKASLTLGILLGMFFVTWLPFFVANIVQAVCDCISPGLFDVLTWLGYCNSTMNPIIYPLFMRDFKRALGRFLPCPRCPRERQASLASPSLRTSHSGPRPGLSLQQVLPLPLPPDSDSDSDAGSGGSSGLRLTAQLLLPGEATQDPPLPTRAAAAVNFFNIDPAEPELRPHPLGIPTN
Chain of h5-HT2A (P28223 whole entry): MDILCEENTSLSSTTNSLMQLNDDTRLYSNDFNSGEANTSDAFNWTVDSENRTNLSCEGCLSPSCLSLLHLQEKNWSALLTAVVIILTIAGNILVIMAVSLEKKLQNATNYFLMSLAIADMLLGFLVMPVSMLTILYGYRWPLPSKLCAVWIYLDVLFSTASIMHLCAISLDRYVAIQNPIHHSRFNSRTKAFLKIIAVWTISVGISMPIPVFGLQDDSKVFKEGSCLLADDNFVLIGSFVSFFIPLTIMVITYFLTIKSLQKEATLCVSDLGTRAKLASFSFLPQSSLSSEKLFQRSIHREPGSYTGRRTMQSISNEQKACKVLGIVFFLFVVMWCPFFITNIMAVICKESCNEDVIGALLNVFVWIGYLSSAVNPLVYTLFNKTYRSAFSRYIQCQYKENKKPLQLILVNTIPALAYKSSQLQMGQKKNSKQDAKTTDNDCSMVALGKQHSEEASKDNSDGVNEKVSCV
T1 sequence (P28223 whole entry): as above
Chain of 5-HT1B (P28222 whole entry): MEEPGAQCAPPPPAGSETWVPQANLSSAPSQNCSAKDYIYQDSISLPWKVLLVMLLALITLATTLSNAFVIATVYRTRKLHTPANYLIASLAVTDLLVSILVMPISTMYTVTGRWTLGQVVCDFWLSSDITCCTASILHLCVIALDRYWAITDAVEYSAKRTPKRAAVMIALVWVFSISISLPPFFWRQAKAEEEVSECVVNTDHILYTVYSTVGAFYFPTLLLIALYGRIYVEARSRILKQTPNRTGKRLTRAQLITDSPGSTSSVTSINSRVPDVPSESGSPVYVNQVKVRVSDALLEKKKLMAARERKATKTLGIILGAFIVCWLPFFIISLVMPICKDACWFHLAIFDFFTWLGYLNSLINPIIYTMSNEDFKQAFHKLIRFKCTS

| Compound | Ki [1] | Ki [2] | Ki [3] | Ki ([4]; 5-HT2B pKi ± SEM) | Ki [5] | Ki [6] | Ki [7] | Ki [8] | Ki [9] | Ki [10] | Ki ([11]; 5-HT6 affinity) | Ki ([12]; 5-HT7 affinity) | EC50 [13] | Emax [13] | EC50 [14] | Emax [14] | EC50 [16, 21] | Emax [16] | Emax [17] | EC50 [17] | further results |
| --- | --- | --- | --- | --- | --- | --- | --- | --- | --- | --- | --- | --- | --- | --- | --- | --- | --- | --- | --- | --- | --- |
| COc1ccc2[nH]cc(CCNCc3cccc(Br)c3)c2c1 [Compound 5e, N-(3-Bromobenzyl)-2-(5-methoxy-1H-indol-3-yl)ethan-1-amine] | 0.00676 µM | 0.00148 µM | 0.00562 µM | 0.00355 µM | 0.155 µM | 6.43 µM | 0.381 µM | > 10 µM | > 10 µM | 0.612 µM | 0.045 µM | 0.116 µM | 0.13 µM | 65.5 ± 0.8% | 0.013 µM | 73.8 ± 1.1% | 0.422 µM | 112 ± 3% | 64 ± 8% | 0.321 µM | Ki ([4]; 5-HT2B affinity): 0.0036 µM; Ki ([11]; 5-HT6 pKi ± SEM): 0.0457 µM; Ki ([12]; 5-HT7 pKi ± SEM): 0.117 µM; Emax [15]: 20 ± 2%; EC50 [15, 20]: 0.029 µM; EC50 ([16]; r5-HT2C pEC50 ± SEM, Ca2+ mobilization): 0.417 µM; max counts ([18]; SC): 14.2; ED50 [18]: 5.18 mg/kg; activity in the HTR assay (active / inactive) ([18]; SC, doses up to 30 mg/kg): active; magnitude of peak effect × vehicle ([18]; SC): 4.4 × vehicle; maximally effective dose ([18]; SC): 30 mg/kg |
| COc1ccc2[nH]cc(CCNCc3cccc(C(F)(F)F)c3)c2c1 [Compound 5k, N-(3-Trifluoromethylbenzyl)-2-(5-methoxy-1H-indol-3-yl)ethan-1-amine] | 0.0282 µM | 0.00295 µM | 0.0148 µM | 0.0275 µM | 0.24 µM | > 10 µM | 0.278 µM | > 10 µM | > 10 µM | 3.09 µM | 0.087 µM | 0.262 µM | 0.77 µM | 69.6 ± 1.4% | 0.087 µM | 75.5 ± 1.2% | 0.162 µM | 104 ± 2% | 75 ± 5% | 0.512 µM | Ki [19]: 0.102 µM; Emax [15]: 51 ± 2%; EC50 [15, 20]: 0.107 µM |
| COc1ccc2[nH]cc(CCNCc3cccc(F)c3)c2c1 [Compound 5g, N-(3-Fluorobenzyl)-2-(5-methoxy-1H-indol-3-yl)ethan-1-amine] | 0.0214 µM |  | 0.00871 µM | 0.0219 µM | 0.295 µM | 2.67 µM | 0.319 µM | > 10 µM | > 10 µM | 2.45 µM | 0.059 µM | 0.242 µM | 0.08 µM | 69.1 ± 1.3% | 0.01 µM | 89.3 ± 1.1% | 0.046 µM | 100 ± 3% | 83 ± 5% | 0.192 µM | Ki [19]: 0.0479 µM; Emax [15]: 37 ± 1%; EC50 ([15]; h5-HT2B pEC50 ± SEM, Ca2+ mobilization, NA = not active, Emax ≤ 15%): 0.038 µM; max counts ([18]; SC): 14.5; ED50 [18]: 3.33 mg/kg; magnitude of peak effect × vehicle ([18]; SC): 7.3 × vehicle; maximally effective dose ([18]; SC): 10 mg/kg |
| COc1ccc2[nH]cc(CCNCc3cccc(SC)c3)c2c1 [Compound 5l, N-(3-Methylthiobenzyl)-2-(5-methoxy-1H-indol-3-yl)ethan-1-amine] | 0.00891 µM | 0.00309 µM | 0.00209 µM | 0.00407 µM | 0.127 µM | > 10 µM | 0.659 µM | > 10 µM | > 10 µM | 0.841 µM | 0.0097 µM | 0.136 µM | 0.12 µM | 32 ± 0.7% | 0.032 µM | 46.9 ± 0.8% | 0.205 µM | 101 ± 2% | 60 ± 4% | 0.283 µM | Ki [19]: 0.0132 µM |
